# Assay results taken from patent US12622910B2, “Inhibitors of Bruton's tyrosine kinase and methods of their use” (Janssen Pharmaceutica NV, priority 2021, dated 2026).
# Key:
# [1] = Population PK model and simulations; parameters: species or system human
# [2] = tested on: IL-10 secretion, ABC-DLBCL OCI-LY-10 cells; assay: IL-10 secretion by OCI-LY-10 cells (MesoScale); type: cell-based; conditions: Homo sapiens, OCI-Ly10; 6 independent experiments; read-out: IC50, IL-10 secretion (mean±SEM)
# Protocol: In Vitro Activity in DLBCL Cell Lines—NFκB signaling regulates the secretion of multiple cytokines, including interleukin (IL)-6 and IL-10. Secretion of IL-6 and -10 by ABC-DLBCL OCI-LY-10 cells was measured using a MesoScale assay. […] To determine the anti-proliferative activity of the compound of formula (III), several ABC-DLBCL cell lines—OCI-LY-3, OCI-LY-10, TMD8, and HBL-1—were treated for 8 days. […] The OCI-LY-3 cell line, which harbors a CARD11 mutation downstream of BTK in the NF-κB signaling pathway, was completely insensitive to the compound of Formula (III) up to 2 μM. In 2 experiments, OCI-LY-3 cells were insensitive to the compound of Formula (III) at all concentrations up to 10 μM.
# MDCK-MDR1 (Pgp) = assay: MDCK-MDR1 permeability and efflux
# Protocol: In vitro Absorption, Distribution, Metabolism, and Excretion—The compound of Formula (III) was assessed at a concentration of 5 μM in cell permeability models.
# CYP3A4 = biological target: T1, CYP3A4 (Homo sapiens, UniProt P08684); assay: Metabolism by recombinant CYPs; type: in vitro ADME; conditions: 1 μM, 100 pmol P450/mL, 1 mM NADPH
# T1 construct: with specific CYP probe substrates in human liver microsomes; from tissue; host or cells: human liver microsomes
# Protocol: To assess the potential of the compound of Formula (III) to be a time-dependent inhibitor of CYP3A, human liver microsomes were preincubated for 30 minutes at 37° C. with the compound of Formula (III) at concentrations up to 10 μM, and CYP3A activity was measured using testosterone as a probe substrate. […] The potential of the compound of Formula (III) to induce CYPs at the transcriptional level was assessed using Puracyp™ DPX2 (CYP3A4, PXR) and DRE (CYP1A2, AhR) luciferase-reporter cell lines; rifampicin and omeprazole were used as positive controls for CYP3A and CYP1A induction, respectively. The activation by the compound of Formula (III) was <20% of positive control values for PXR (6.6% and 14.1% at 1 and 10 μM change, respectively) or AhR (0.1% and 0.3% change, respectively). […] Potential involvement of various CYP isoforms in the metabolism of the compound of Formula (III) was investigated by measuring the parent compound remaining after 1-hour incubation with the compound of Formula (III) (1 μM) with recombinant CYPs (rCYPs) at 100 pmol P450/mL in the presence of 1 mM NADPH at 37° C. The only isozyme that produced notable the compound of Formula (III) turnover with <1% parent remaining after 1-hour incubation was CYP3A4 (FIG. 24). […]
# B-cell activation = assay: Rat whole blood assay, anti-IgD-induced B-cell activation (CD86); type: cell-based, Wistar rat; conditions: anti-IgD stimulation, n=2, read-out: IC50, inhibition of B-cell activation in rat whole blood
# Source text: The compound of Formula (III) Inhibits B-cell receptor activation—Rat whole blood assays were used to assess the ability of the compound of Formula (III) to inhibit activation of primary B cells in whole blood. The assay used anti-IgD stimulation to trigger B-cell activation. Cell activation in freshly isolated blood was quantified by staining for cell surface expression of B220 to identify B cells and a cell activation marker CD86.
# Rat Whole Blood Assay-Anti-rat IgD was purchased from Bio-Rad AbD Serotec, Ltd. (Oxford, United Kingdom). Rat B220-PE and rat CD86-FITC were purchased from eBioscience (San Diego, CA). Lysing buffer was purchased from BD Biosciences (San Diego, CA). To determine the potency of each compound, inhibition of anti-IgD-induced activation of B cells in rat whole blood was assessed by flow cytometry. […]
# Inhibition percentage was determined by the following equation: Inhibition %=(ActBstim−ActBcompound)×100/(ActBstim−ActBunstim), where […], ActBunstim, and ActBcompound refer to the percentage of activated B cells of the stimulated (no compound), unstimulated (no antibody), and compound treated wells, respectively. The IC50 for each compound was then calculated from the inhibition % of the titrations using a 4-PL fit. […]
# T1 sequence (P08684 whole entry): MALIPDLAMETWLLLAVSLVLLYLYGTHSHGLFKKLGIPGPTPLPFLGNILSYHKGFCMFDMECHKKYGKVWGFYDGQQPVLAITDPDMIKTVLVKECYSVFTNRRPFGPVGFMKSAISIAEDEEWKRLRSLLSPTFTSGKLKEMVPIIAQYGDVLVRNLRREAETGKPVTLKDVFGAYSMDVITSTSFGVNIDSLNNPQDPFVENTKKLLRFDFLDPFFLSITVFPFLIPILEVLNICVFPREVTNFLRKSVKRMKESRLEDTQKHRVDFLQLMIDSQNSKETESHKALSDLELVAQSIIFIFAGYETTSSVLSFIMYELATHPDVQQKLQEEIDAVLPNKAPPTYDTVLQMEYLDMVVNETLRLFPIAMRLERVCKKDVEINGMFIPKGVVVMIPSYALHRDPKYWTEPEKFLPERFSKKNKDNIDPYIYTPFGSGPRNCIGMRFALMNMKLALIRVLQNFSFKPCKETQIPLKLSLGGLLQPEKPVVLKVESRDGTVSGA
smiles,measurement,setting,value
"C=CC(=O)N[C@H]1CCC[C@H]1NC(=O)c1sc2nccc3c2c1NC(=O)N3c1cnc(CC(C)C)cc1C (atropisomer, axis not shown) [compound of Formula (III), N-((1R,2S)-2-Acrylamidocyclopentyl)-5-(S)-(6-isobutyl-4-methylpyridin-3-yl)-4-oxo-4,5-dihydro-3H-1-thia-3,5,8-triazaacenaphthylene-2-carboxamide]","V2/F, popPK estimate","[1]; model (A), first 5 SAD cohorts",43.0 L
same,"V2/F, popPK estimate","[1]; model (B), all SAD and MAD data",49.5 L
same,IC50,[2],18 ± 7 nM
same,Efflux Ratio (BA/AB),MDCK-MDR1 (Pgp),>115
same,parent remaining after 1-hour incubation,CYP3A4,< 1%
same,IC50,B-cell activation,41 ± 11.7 nM
